Test results reported in US20220306695A1, “COMPSTATIN ANALOGUES AND THEIR MEDICAL USES” (priority 2019, published 2022).
Where two headings read alike, the source gives them in different places. Starred links: 1 amine or outer side, 2 acyl side, 3 side chain; linkers in the order of their positions; H or OH if unused. Positions of bridges follow the written chain, without caps; N, C: chain ends. Non-standard residues stand in square brackets, D forms with d. Residues, ends and D or L forms follow the SMILES beside them. Groups on a side chain read outwards from the residue. *: point of attachment. Trp(1-Me) = Cn1cc(C[C@H](N)C(=O)O)c2ccccc21; C18 diacid = O=C(O)CCCCCCCCCCCCCCCCC(=O)*; C16 diacid = O=C(O)CCCCCCCCCCCCCCC(=O)*; γGlu = O=C(O)[C@H](CCC(=O)[*:2])N[*:1]; AEEA = NCCOCCOCC(=O)O; Sar = CNCC(=O)O

Columns and labels:
in vivo = assay: in vivo; design: species or system Cynomolgus monkeys (Macaca fascicularis); settings: male, cynomolgus monkey, sc, 1840 nmol/kg, t½
Description: Healthy male Cynomolgus monkeys (Macaca fascicularis) received single subcutaneous administrations of each test substance. Compounds were formulated in 20 mM phosphate adjusted with NaOH to pH 7.5 and mannitol for isotonicity and dosed at 1840 nmol/kg. Blood was collected from a femoral vein from each animal at the following times: Pre-dose, 1, 2, 4, 8, 24, 48, 72, 96 and 120 h (10 sampling times). Blood was collected into serum separation tubes and allowed to clot at room temperature. The tubes were centrifuged and resulting serum was aliquoted and snap-frozen over dry-ice and stored at nominally −80° C. until analysis. All NHP studies were performed in accordance with animal welfare laws and regulations, including approval of the study by a local ethical review process.
In order to assess pharmacokinetic half-life (t %/), serum samples isolated from non-human primates at specific time points after dosing were analysed for total drug compound after sample preparation by solid phase extraction (SPE) and liquid chromatography mass spectrometry (LC-MS/MS) using analogue internal standard. Single measurement of serum concentrations were used for calculation of the pharmacokinetic parameters using the non-compartmental approach in Phoenix WinNonlin 6.3. Plasma terminal elimination half-life (ty) was determined as In(2)/λz where λz is the magnitude of the slope of the log linear regression of the log concentration versus time profile during the terminal phase.

[1] = Solubility test at 10 mg/mL (visual inspection and light scattering); format: physicochemical; settings: for Solubility, Condition 1 Acetate pH 4: 10 mg/mL compound in 100 mM acetate pH 4; for Solubility, Condition 2 Acetate pH 5: 10 mg/mL compound in 100 mM acetate pH 5; for Solubility, Condition 3 Phosphate pH 6: 10 mg/mL compound in 100 mM phosphate pH 6; for Solubility, Condition 4 Phosphate pH 7: 10 mg/mL compound in 100 mM phosphate pH 7; for Solubility, Condition 5 Phosphate pH 7.5: 10 mg/mL compound in 100 mM phosphate pH 7.5
[2] = test system: classical complement pathway; assay: In vitro haemolysis assay (inhibition of classical complement pathway); format: cell-based, human; settings: Table 3; human serum, sensitized sheep red blood cells; read-out: IC50[nM], in vitro analysis of inhibition of hemolysis
Outline: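 Serially diluted compound (9 points) was preincubated 15 min at room temperature with diluted human serum, titrated per batch to give 70-90% maximal haemolysis, in Tris/casein buffer pH 7.4 with Mg2+/Ca2+. Antibody-sensitized sheep erythrocytes were then added for 30 min at 37° C, and the reaction was stopped with EDTA. Haemolysis was read at A405, with IC50 from 4PL fit.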

[3] = format: physicochemical; settings: 50 mg/mL peptide; for Covalent oligomer content after 14 days 40° C. (%), F1 / Purity after 14 days 40° C. (%), F1: F1: 20 mM phosphate pH 5.5; for Covalent oligomer content after 14 days 40° C. (%), F1 / Covalent oligomer content after 14 days 40° C. (%), F2: denaturing SEC; for Purity after 14 days 40° C. (%), F1 / Purity after 14 days 40° C. (%), F2 / Purity after 14 days 40° C. (%), F3: normalized purity (HPLC)
Description: Chemical stability of compstatin analogues with cystathionine or disulfide bridge. Stability was assessed in three formulations at 50 mg/mL peptide, F1:20 mM phosphate pH 5.5, F2:20 mM phosphate pH 6.5 and F3:20 mM phosphate pH 7.5. The formulations were prepared by direct dissolution of peptide from lyophilized portions in the respective formulations. pH was adjusted to target with 1 M NaOH and 1 M HCl. Chemical stability was assessed under accelerated conditions (14 days, 40° C.) and evaluated as change in purity by reverse phase HPLC, and change in covalent oligomer content by denaturing SEC. The formulations were placed at 40° C. with analysis points at T=0, 7 and 14 days. On each time point a small volume was extracted and diluted to 2 mg/mL and tested by reverse phase HPLC and denaturing SEC. Purity was assessed by reverse phase HPLC using an Ultimate 3000 system for binary gradient application equipped with a Kinetix C18 column (cat. no. 00F-4462-Y0, 150 mm×3 mm, 2.6 μm) run at 0.5 ml/min with a gradient of buffer A (0.3% TFA, aq.) and buffer B (0.3% TFA, 90% MeCN, aq.) gradient from 40% B to 70% B over 20 min. Detection was done using a diode array detector set to 220 nm. Covalent oligomer formation was assessed by denaturing SEC (size exclusion chromatography) using an Ultimate 3000 system equipped with a TSKgel SuperSW 2000 column (cat. no. 818674, 300 mm×3 mm, 4 μm) run at 0.5 ml/min with isocratic flow of buffer A (0.1% TFA, 45% MeCN, aq.), 10 min. Detection was done using a diode array detector set to 215 nm. Compounds 126 and 156 were carefully weighed out and dissolved in formulations F1, F2 and F3 to a target concentration of 50 mg/mL. Once visually dissolved, concentration was confirmed by absorbance at 280 nm, and samples were placed in stability at 40° C. Samples for analysis were extracted on T=0, 7 and 14 days from a 40° C. climate chamber. The extracted volume was dissolved 1:25 (final concentration: 2 mg/mL) in 20 mM phosphate pH 5.5, 6.5 or 7.5 and measured by reverse phase HPLC and denaturing SEC by injection of 0.4 μL (column load […]). The resulting chromatograms were integrated to determine chemical purity by reverse phase HPLC and covalent oligomer content by denaturing SEC.

Structure (SMILES) | half-life (in vivo) | Solubility, Condition 1 Acetate pH 4 [1] | Solubility, Condition 2 Acetate pH 5 [1] | Solubility, Condition 3 Phosphate pH 6 [1] | Solubility, Condition 4 Phosphate pH 7 [1] | Solubility, Condition 5 Phosphate pH 7.5 [1] | IC50 [2] | Covalent oligomer content after 14 days 40° C. (%), F1 [3] | Purity after 14 days 40° C. (%), F1 [3] | Covalent oligomer content after 14 days 40° C. (%), F2 ([3]; F2: 20 mM phosphate pH 6.5) | Purity after 14 days 40° C. (%), F2 ([3]; F2: 20 mM phosphate pH 6.5) | Covalent oligomer content after 14 days 40° C. (%), F2 ([3]; F3: 20 mM phosphate pH 7.5) | Purity after 14 days 40° C. (%), F3 ([3]; F3: 20 mM phosphate pH 7.5)
CC[C@H](C)[C@@H]1NC(=O)[C@@H](NC(=O)[C@H](Cc2ccc(O)cc2)NC(=O)[C@H](C)NC(=O)[C@H](CO)NC(=O)CNC(=O)[C@H](CCC(=O)O)NC(C)=O)CSSC[C@@H](C(=O)N(C)CC(=O)N[C@@H](CCC(=O)O)C(=O)NCC(=O)N[C@@H](CCCCNC(=O)COCCOCCNC(=O)COCCOCCNC(=O)CC[C@H](NC(=O)CCCCCCCCCCCCCCC(=O)O)C(=O)O)C(N)=O)NC(=O)[C@H](CCCNC(=N)N)NC(=O)[C@H](Cc2c[nH]cn2)NC(=O)[C@H](CCC(=O)O)NC(=O)CNC(=O)[C@H](Cc2c[nH]c3ccccc23)NC(=O)[C@H](CC(=O)O)NC(=O)[C@H](CCC(N)=O)NC(=O)[C@H](Cc2cn(C)c3ccccc23)NC1=O [Compound 104] (Ac-EGSAYCI[Trp(1-Me)]QDWGEHRC[Sar]EGK([AEEA-AEEA-γGlu-C16 diacid])-NH2; disulfide 6-16) | 96.3 h | − (denotes lack of solubility at the given condition, as UV absorbance at 340 nm exceeds 0.1 AU and/or it is visibly turbid or contains particles.) | + (denotes solubility at the given condition, as determined by UV absorbance being less than 0.1 AU at 340 nm and the sample being clear when manually inspected.) | + (denotes solubility at the given condition, as determined by UV absorbance being less than 0.1 AU at 340 nm and the sample being clear when manually inspected.) | + (denotes solubility at the given condition, as determined by UV absorbance being less than 0.1 AU at 340 nm and the sample being clear when manually inspected.) | + (denotes solubility at the given condition, as determined by UV absorbance being less than 0.1 AU at 340 nm and the sample being clear when manually inspected.) | < 100 nM | – | – | – | – | – | –
CC[C@H](C)[C@@H]1NC(=O)[C@@H](NC(=O)[C@H](Cc2ccc(O)cc2)NC(=O)[C@H](CCC(=O)O)NC(=O)[C@H](CO)NC(=O)CNC(=O)[C@H](CCC(=O)O)NC(=O)CCCCCCCCCCCCCCC(=O)O)CSSC[C@@H](C(=O)N(C)CC(=O)N[C@@H](CCC(=O)O)C(N)=O)NC(=O)[C@H](CCCNC(=N)N)NC(=O)[C@H](Cc2c[nH]cn2)NC(=O)[C@H](CCC(=O)O)NC(=O)CNC(=O)[C@H](Cc2c[nH]c3ccccc23)NC(=O)[C@H](CC(=O)O)NC(=O)[C@H](CCC(N)=O)NC(=O)[C@H](Cc2cn(C)c3ccccc23)NC1=O [Compound 107] ({C16 diacid}-EGSEYCI[Trp(1-Me)]QDWGEHRC[Sar]E-NH2; disulfide 6-16) | 20.1 h | − (denotes lack of solubility at the given condition, as UV absorbance at 340 nm exceeds 0.1 AU and/or it is visibly turbid or contains particles.) | − (denotes lack of solubility at the given condition, as UV absorbance at 340 nm exceeds 0.1 AU and/or it is visibly turbid or contains particles.) | + (denotes solubility at the given condition, as determined by UV absorbance being less than 0.1 AU at 340 nm and the sample being clear when manually inspected.) | + (denotes solubility at the given condition, as determined by UV absorbance being less than 0.1 AU at 340 nm and the sample being clear when manually inspected.) | + (denotes solubility at the given condition, as determined by UV absorbance being less than 0.1 AU at 340 nm and the sample being clear when manually inspected.) | < 100 nM | – | – | – | – | – | –
CC[C@H](C)[C@@H]1NC(=O)[C@@H](NC(=O)[C@H](Cc2ccccc2)NC(=O)[C@H](CCC(=O)O)NC(=O)[C@H](CO)NC(C)=O)CSSC[C@@H](C(=O)N(C)CC(=O)N[C@@H](CCC(=O)O)C(=O)NCC(=O)N[C@@H](C)C(=O)N[C@@H](CCCCNC(=O)COCCOCCNC(=O)CC[C@H](NC(=O)COCCOCCNC(=O)CNC(=O)CC[C@H](NC(=O)CCCCCCCCCCCCCCCCC(=O)O)C(=O)O)C(=O)O)C(N)=O)NC(=O)[C@H](CCCNC(=N)N)NC(=O)[C@H](Cc2c[nH]cn2)NC(=O)[C@H](CCC(=O)O)NC(=O)CNC(=O)[C@H](Cc2c[nH]c3ccccc23)NC(=O)[C@H](CC(=O)O)NC(=O)[C@H](CCC(N)=O)NC(=O)[C@H](Cc2cn(C)c3ccccc23)NC1=O [Compound 119] (Ac-SEFCI[Trp(1-Me)]QDWGEHRC[Sar]EGAK([AEEA-γGlu-AEEA-Gly-γGlu-C18 diacid])-NH2; disulfide 4-14) | 139 h | – | – | – | – | – | < 100 nM | 80% | 23% | 66% | 31% | 48% | 46%
CC[C@H](C)[C@@H]1NC(=O)[C@@H](NC(=O)[C@H](Cc2ccccc2)NC(=O)[C@H](CCC(=O)O)NC(=O)[C@H](CO)NC(C)=O)CSSC[C@@H](C(=O)N[C@H](C(=O)N[C@@H](CCC(=O)O)C(=O)NCC(=O)N[C@@H](CCC(=O)O)C(=O)NCCOCCOCC(=O)N[C@@H](CCC(=O)O)C(=O)N[C@@H](CO)C(=O)N[C@@H](CCCCNC(=O)CC[C@H](NC(=O)CCCCCCCCCCCCCCCCC(=O)O)C(=O)O)C(N)=O)[C@@H](C)O)NC(=O)[C@H](CCCNC(=N)N)NC(=O)[C@H](Cc2c[nH]cn2)NC(=O)[C@H](CCC(=O)O)NC(=O)CNC(=O)[C@H](Cc2c[nH]c3ccccc23)NC(=O)[C@H](CC(=O)O)NC(=O)[C@H](CCC(N)=O)NC(=O)[C@H](Cc2cn(C)c3ccccc23)NC1=O [Compound 142] (Ac-SEFCI[Trp(1-Me)]QDWGEHRCTEGE[AEEA]ESK([γGlu-C18 diacid])-NH2; disulfide 4-14) | 143 h | – | – | – | – | – | < 100 nM | 63% | 50% | 64% | 37% | 56% | 45%
